Our source for the Activity and stoichiometry values is ChEMBL document CHEMBL1144848, “Interaction of a cyclostreptin analogue with the microtubule taxoid site: the covalent reaction rapidly follows binding” (J Nat Prod, 2008).

Each structure is given as a SMILES string. The source made the active and inactive calls. The rule behind the calls is not given here.

Assay [1] is filed under the species Bos taurus. The experiment in a line: Binding affinity to bovine microtubules assessed as drug level in bound to taxoid site at <=20 degC after 60 mins by total binding assay.
For assay [2], the species on record is Bos taurus. The experiment in a line: Binding affinity to bovine tubulin assessed as drug level in bound to per mole of colchicine site at <=20 degC after 1 min by covalent binding assay.
The species named for assay [3] is Bos taurus. The experiment in a line: Binding affinity to bovine microtubules assessed as drug level in bound to per mole taxoid site at <=0 degC after 1 min by covalent binding assay.
For assay [4], the species on record is Bos taurus. The experiment in a line: Binding affinity to bovine microtubules assessed as drug level in bound to per mole taxoid site at <=0 degC after 60 mins by covalent binding assay.
The species entered for assay [5] is Bos taurus. The experiment in a line: Binding affinity to bovine tubulin assessed as drug level in bound to per mole of colchicine site at <=20 degC after 60 mins by covalent binding assay.
Assay [6] is filed under the species Bos taurus. The assay can be described thus: Binding affinity to bovine microtubules assessed as drug level in bound to per mole taxoid site at <=0 degC after 1 min by total binding assay.
The species named for assay [7] is Bos taurus. The experiment in a line: Binding affinity to bovine microtubules assessed as drug level in bound to per mole taxoid site at <=0 degC after 60 mins by total binding assay.
The species named for assay [8] is Bos taurus. The assay can be described thus: Binding affinity to bovine tubulin assessed as drug level in bound to per mole of colchicine site at <=20 degC after 1 min by total binding assay.
For assay [9], the species on record is Bos taurus. The experiment in a line: Binding affinity to bovine tubulin assessed as drug level in bound to per mole of colchicine site at <=0 degC after 1 min by total binding assay.
Assay [10] is filed under the species Bos taurus. The experiment in a line: Binding affinity to bovine tubulin assessed as drug level in bound to per mole of colchicine site at <=20 degC after 60 mins by total binding assay.
The species entered for assay [11] is Bos taurus. The experiment in a line: Binding affinity to bovine microtubules assessed as drug level in bound to taxoid site at <=0 degC after 1 min by covalent binding assay.
The species entered for assay [12] is Bos taurus. The assay can be described thus: Binding affinity to bovine microtubules assessed as drug level in bound to taxoid site at <=20 degC after 1 min by total binding assay.
The species named for assay [13] is Bos taurus. The experiment in a line: Binding affinity to bovine tubulin at 5 uM in <=0 degC after 60 mins. The following applies: tested as the 14C-labelled form.
The species entered for assay [14] is Bos taurus. The assay can be described thus: Binding affinity to bovine tubulin at 5 uM in <=20 degC after 60 mins. To be noted: tested as the 14C-labelled form.
Assay [15] is filed under the species Bos taurus. The assay can be described thus: Binding affinity to bovine tubulin assessed as drug level in bound to per mole of colchicine site at <=0 degC after 60 mins by total binding assay.
For assay [16], the species on record is Bos taurus. The experiment in a line: Binding affinity to bovine microtubules assessed as drug level in bound to taxoid site at <=0 degC after 60 mins by covalent binding assay.
The species named for assay [17] is Bos taurus. The experiment in a line: Enhancement of bovine tubulin stability at <=0 degC.

Regarding `CC(=O)O[C@H]1[C@H](C)[C@@H](O)[C@H]2[C@H]1C=C(C)[C@@H]1C[C@@H]3[C@@H](C4=C5O[C@]3(C)CC[C@H](OC4=O)[C@H]5C)[C@H]21`, the Activity in the assay filed under Bos taurus [1] is 0.93 mol/mol; in the assay listed under Bos taurus [3] it was 0.13 mol/mol; in the assay listed under Bos taurus [4] it was 0.35 mol/mol; in the assay listed under Bos taurus [5], 0.88 mol/mol; in the assay listed under Bos taurus [7] it was 0.38 mol/mol; in the assay filed under Bos taurus [8], 0.6 mol/mol. The Activity came to 0.01 mol/mol in the assay listed under Bos taurus [9], 0.46 mol/mol in the assay listed under Bos taurus [11], 0.53 mol/mol in the assay filed under Bos taurus [12] and 0.81 mol/mol in the assay listed under Bos taurus [16]. Moreover, the stoichiometry in the assay filed under Bos taurus [2] is 0.7 mol/mol; in the assay listed under Bos taurus [6], 0.14 mol/mol; in the assay filed under Bos taurus [10], 0.81 mol/mol; in the assay listed under Bos taurus [15] it was 0.06 mol/mol. Besides, the outcome in the assay listed under Bos taurus [13] and in the assay listed under Bos taurus [14] was inactive.

As for `CC(=O)O[C@H]1C(=O)[C@@]2(C)[C@H]([C@H](OC(=O)c3ccccc3)[C@]3(O)C[C@H](OC(=O)[C@H](O)[C@@H](NC(=O)c4ccccc4)c4ccccc4)C(C)=C1C3(C)C)[C@]1(OC(C)=O)CO[C@@H]1C[C@@H]2O`, the result in the assay filed under Bos taurus [17] was Active.
